How the values were obtained:
[1] = system: spontaneously hypertensive rats; assay: Antihypertensive efficacy test of pharmaceutical compositions in spontaneously hypertensive rats; assay type: in vivo, rat; conditions: SHR, intragastric once a day, 28 days after administration
Description: After that, the blood pressure sensing catheter of hypertension implant was inserted into their abdominal aorta, while the implant was fixed to the abdominal wall, and then postoperative daily care was performed after suturing. […] A group of WKY rats (provided by Beijing Weitong Lihua Co., Ltd.) was set as a normal control group, which were administered intragastrically once a day at a volume calculated by 4 mL/kg for a total of 4 weeks. Each group were administered as follows: The normal control group were not administered; The blank control group were administered 0.5% CMC-Na; […] The valsartan group were administered valsartan dissolved in 0.5% CMC-Na, at a dose of 30 mg/kg; The Azilsartan kaMedoxoMil were administered Azilsartan kaMedoxoMil dissolved in 0.5% CMC-Na, at a dose of 1 mg (azilsartan effective dose)/kg; The AHU […] group were administered AHU 377 K, dissolved in 0.5% CMC-Na, at a dose of 30 mg/kg; The AHU377 ammonium salt group were administered AHU377 ammonium salt, dissolved in 0.5% CMC-Na, at a dose of 30 mg/kg; The LCZ696 group were administered LCZ696, dissolved in 0.5% CMC-Na, at a dose of 60 mg/kg; […]

[2] = system: chronic heart failure rats; assay: Therapeutic effect of pharmaceutical composition on chronic heart failure rats (high-salt fed DSS rats); assay type: in vivo, rat; conditions: high-salt (8% sodium chloride) fed DSS rats, administration for 7 weeks, analysis at 18-weeks-age
Description: Five-week-old male DSS rats (purchased from Beijing Weitong Lihua Experimental Animal Technology Co., Ltd.) were randomly divided into 10 groups, among which, one group were fed with low salt as normal control group and the other 9 groups were fed with high salt. The low-salt feeding group were administered 0.3% sodium chloride, and high-salt feeding group were administered 8% sodium chloride to induce hypertension-cardiac hypertrophy-heart failure to form pathological model. […] The rats were killed at 18-weeks-age for analysis of blood pressure and atrial natriuretic peptide (ANP).

[3] = system: rats with heart failure by coronary artery ligation (CAL); assay: Therapeutic effect of pharmaceutical compositions on acute heart failure caused by coronary artery ligation; assay type: in vivo, rat; conditions: Sprague-Dawley rats, after 4 weeks of continuous administration; for EF (left ventricular ejection fraction): cardiac ultrasound
Description: Male Sprague-Dawley rats (purchased from Beijing Weitong Lihua Experimental Animal Technology Co., Ltd.) were used to perform heart failure model by coronary artery ligation (CAL). One week after surgery, the myocardial infarct size of the rats was examined by echocardiography. […] Operations on the normal control group were the same as above, except for the absence of arterial ligation. Rats with successful modeling were randomly divided into 9 groups, wherein each group has 10 rats. […] Cardiac function was detected by cardiac ultrasound after 4 weeks of continuous administration, and changes of mean arterial pressure (MAP) and left ventricular ejection fraction (EF) were analyzed.

[4] = system: spontaneously hypertensive rats; assay: Antihypertensive efficacy test of the compound 1K in spontaneously hypertensive rats; assay type: in vivo, rat; conditions: SHR, intragastric, 1 mg/kg; for Heart rates change, 1 hour after administration / Systolic blood pressure change, 1 hour after administration / Heart rates change, 3 hours after administration / Systolic blood pressure change, 3 hours after administration / Heart rates change, 5 hours after administration / Systolic blood pressure change, 5 hours after administration / Heart rates change, 7 hours after administration / Systolic blood pressure change, 7 hours after administration / Heart rates change, 10 hours after administration / Systolic blood pressure change, 10 hours after administration / Heart rates change, 24 hours after administration / Systolic blood pressure change, 24 hours after administration / Heart rates change, before administration / Systolic blood pressure change, before administration: average ± standard error; for Heart rates change, before administration / Systolic blood pressure change, before administration: before administration (reference value)
Description: 12-week-old spontaneously hypertensive rats (hereinafter referred to as SHR, purchased from Beijing Weitong Lihua Experimental Animal Technology Co., Ltd.) were anesthetized with 2.5% sodium pentobarbital for intraperitoneal injection. After that, the blood pressure sensing catheter of hypertension implant was inserted into their abdominal aorta, while the implant was fixed to the abdominal wall, and then postoperative daily care was performed after suturing. Rats with systolic blood pressure exceeding 160 mm Hg were divided into 3 groups (control group, compound 1 group and compound 1K group), wherein each group has 8 rats. The control group was administrated 0.5% sodium carboxymethyl cellulose (hereinafter referred to as CMC-Na); the compound 1 group and the compound 1K group were respectively administered the compound 1 and the compound 1K, both of which were dissolved by 0.5% CMC-Na, by intragastric administration, at a dose of 1 mg/kg (calculated by the effective dose of valsartan) and a volume calculated by 4 mL/kg. The systolic blood pressure and heart rate of SHR were compared before and after administration (the systolic blood pressure and heart rate of SHR before administration as reference value), which were detected three times at each time point with the average value recorded.

Row | SMILES | heart rate change [1] | systolic pressure change [1] | ANP rate of change [2] | systolic pressure change [2] | MAP (mean arterial pressure) [3] | EF (left ventricular ejection fraction) [3] | Heart rates change, 1 hour after administration [4] | Systolic blood pressure change, 1 hour after administration [4] | Heart rates change, 3 hours after administration [4] | Systolic blood pressure change, 3 hours after administration [4] | Heart rates change, 5 hours after administration [4] | Systolic blood pressure change, 5 hours after administration [4] | Heart rates change, 7 hours after administration [4] | Systolic blood pressure change, 7 hours after administration [4] | Heart rates change, 10 hours after administration [4] | Systolic blood pressure change, 10 hours after administration [4] | Heart rates change, 24 hours after administration [4] | Systolic blood pressure change, 24 hours after administration [4] | Heart rates change, before administration [4] | Systolic blood pressure change, before administration [4] | also measured
1 | CCOC(=O)[C@H](C)C[C@@H](Cc1ccc(-c2ccccc2)cc1)NC(=O)CCC(=O)O.N [AHU377 ammonium salt, Ammonium 4-(((2S,4R)-1-([1,1′-biphenyl]-4-yl)-5-ethoxy-4-methyl-5-oxopentane-2-yl)amino)-4-oxobutanoate] | 3 ± 2.1 times/minute | −18.5 ± 2.5 mmHg | 135.3p % | −18.3p am mmHg | 172oup mmHg |  |  |  |  |  |  |  |  |  |  |  |  |  |  |  | 
2 | CCOC(=O)[C@H](C)C[C@@H](Cc1ccc(-c2ccccc2)cc1)NC(=O)CCC(=O)[O-].[K+] [AHU 377K, potassium 4-(((2S,4R)-1-([1,1′-biphenyl]-4-yl)-5-ethoxy-4-methyl-5-oxopentan-2-yl)amino)-4-oxobutanoate] | −8.1 ± 2.8 times/minute | −15.6 ± 2.5 mmHg | 143.6p % | −20.6p7Km mmHg | 170.6p7K mmHg | 37.46p7K % |  |  |  |  |  |  |  |  |  |  |  |  |  |  | 
3 | CCOc1nc2cccc(C(=O)OCc3oc(=O)oc3C)c2n1Cc1ccc(-c2ccccc2-c2noc(=O)[n-]2)cc1.[K+] [Azilsartan kaMedoxoMil] | −11.1 ± 3.7 times/minute | −33.5 ± 3.2 mmHg | 132.3s^ % | −36.3sium mmHg | 150.4sium^ mmHg | 45.14siu % |  |  |  |  |  |  |  |  |  |  |  |  |  |  | 
4 | CCOc1nc2cccc(C(=O)OC(C)OC(=O)OCc3nc(C)c(C)nc3C)c2n1Cc1ccc(-c2ccccc2-c2noc(=O)[n-]2)cc1.[K+] (centres unmarked) [Compound 1K] | −29.3 ± 4.1 times/minute | −50.4 ± 4.7 mmHg | 158 ± 7% | −48.5 ± 7.5 mmHg | 145.5 ± 8.9 mmHg | 48.6 ± 5.3% | −3.6 ± 2.4 times/minute | −7.0 ± 3.4 mmHg | −5.0 ± 2.5 times/minute | −34.3 ± 1.9 mmHg | −10.1 ± 3.0 times/minute | −46.5 ± 2.5 mmHg | −17.5 ± 3.0 times/minute | −49.4 ± 4.1 mmHg | −25.4 ± 2.4 times/minute | −45.3 ± 3.3 mmHg | −28.6 ± 8 times/minute | −25.9 ± 3.4 mmHg | 0.0 ± 0.0 times/minute | 0.0 ± 0.0 mmHg | antihypertensive effect compared with the compound 1 group ([4]; result in words): more potent with longer-lasting antihypertensive effect; effect of lowering heart rate compared with the compound 1 group ([4]; result in words): more potent with longer-lasting effect of lowering heart rate
5 | CCOc1nc2cccc(C(=O)OC(C)OC(=O)OCc3nc(C)c(C)nc3C)c2n1Cc1ccc(-c2ccccc2-c2noc(=O)[nH]2)cc1 (centres unmarked) [Compound 1] |  |  |  |  |  |  | −3.4 ± 2.6 times/minute | −4.9 ± 4.8 mmHg | −2.33 ± 2.6 times/minute | −22.0 ± 3.6 mmHg | −6.5 ± 2.8 times/minute | −30.5 ± 3.5 mmHg | −6.2 ± 3.0 times/minute | −38.8 ± 2.3 mmHg | −12.3 ± 2.8 times/minute | −33.0 ± 1.7 mmHg | −6.7 ± 2.6 times/minute | −10.2 ± 2.1 mmHg | 0.0 ± 0.0 times/minute | 0.0 ± 0.0 mmHg | melting point: 135 to 145 °C
6 | CCCCC(=O)N(Cc1ccc(-c2ccccc2-c2nnn[nH]2)cc1)[C@H](C(=O)O)C(C)C [valsartan] | −10.6 ± 3.2 times/minute | −30.6 ± 3.5 mmHg | 125 ± 52% | −32.4 ± 4.6 mmHg |  | 35.3arta^ % |  |  |  |  |  |  |  |  |  |  |  |  |  |  | 

Source: patent publication US11096928B2, “Pharmaceutical composition” (WUHAN LL SCIENCE AND TECHNOLOGY DEVELOPMENT CO., LTD., priority 2016, dated 2021)
